According to publication PMC11374718, “Unlocking opioid neuropeptide dynamics with genetically encoded biosensors” (Nature Neuroscience, 2024):
Read-outs that look alike come from different tables or passages of the source. Where no end group is shown, it is not given here.

Experiments:
µLight [1] = molecular target: µLight (Homo sapiens, UniProt P35372, INS270[…]/V175Q); format: cell-based; conditions: for EC50: read-out: μLight EC50
κLight1.3 [2] = molecular target: T1, κLight1.3 (Homo sapiens, UniProt P41145, INS261[…]/L259S/S262L/V164K); format: cell-based; conditions: for EC50: read-out: κLight EC50
T1 construct: TlcnC (telencephalin) tag (C); PRC tag (C); ER2 (ER export motif FCYENEV) tag (C); expressed in transfected cells; dissociated hippocampal neurons (AAV9-hSyn); mouse brain (AAV9-hSyn)
Target sequence in this assay (P41145 with tags, fused parts or gaps V164K/L259S/INS261[withheld]/S262L): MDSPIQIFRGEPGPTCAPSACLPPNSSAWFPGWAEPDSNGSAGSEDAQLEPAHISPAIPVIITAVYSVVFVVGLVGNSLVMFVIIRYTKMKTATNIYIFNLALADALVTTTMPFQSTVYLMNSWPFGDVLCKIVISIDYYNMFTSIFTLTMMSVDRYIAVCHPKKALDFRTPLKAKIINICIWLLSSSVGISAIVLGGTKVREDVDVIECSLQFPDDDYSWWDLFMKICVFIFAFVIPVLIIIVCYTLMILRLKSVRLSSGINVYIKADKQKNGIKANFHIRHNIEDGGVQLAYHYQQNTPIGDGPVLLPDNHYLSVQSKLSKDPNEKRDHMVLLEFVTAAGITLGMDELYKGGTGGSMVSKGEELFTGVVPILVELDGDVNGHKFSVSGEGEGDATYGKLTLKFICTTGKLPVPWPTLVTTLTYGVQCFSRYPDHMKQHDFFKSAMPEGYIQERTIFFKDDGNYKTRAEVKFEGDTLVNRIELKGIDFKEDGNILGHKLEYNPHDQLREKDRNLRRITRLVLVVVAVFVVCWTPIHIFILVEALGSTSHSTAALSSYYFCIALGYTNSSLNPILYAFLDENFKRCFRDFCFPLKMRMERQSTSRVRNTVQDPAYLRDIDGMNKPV

µLight [3] = molecular target: µLight (Homo sapiens, UniProt P35372, V175Q); experiment: biochemical; format: binding
µLight (Homo sapiens, UniProt P35372, V175Q), sequence (P35372 whole entry V175Q, looked up): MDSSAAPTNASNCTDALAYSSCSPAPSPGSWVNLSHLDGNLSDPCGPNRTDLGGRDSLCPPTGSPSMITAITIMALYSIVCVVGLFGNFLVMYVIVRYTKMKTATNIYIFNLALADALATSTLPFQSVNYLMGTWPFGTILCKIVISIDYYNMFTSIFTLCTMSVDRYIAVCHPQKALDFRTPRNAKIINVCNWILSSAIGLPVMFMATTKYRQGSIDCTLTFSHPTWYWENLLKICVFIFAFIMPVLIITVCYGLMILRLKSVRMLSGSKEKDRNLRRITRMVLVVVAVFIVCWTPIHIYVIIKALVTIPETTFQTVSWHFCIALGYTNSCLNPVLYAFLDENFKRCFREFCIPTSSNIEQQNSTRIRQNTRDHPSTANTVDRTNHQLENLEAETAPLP

δLight [4] = conditions: read-out: δLight EC50 in neurons; dissociated hippocampal neurons
κLight1.3 [5] = molecular target: T1, κLight1.3; format: cell-based; conditions: read-out: κLight1.3 EC50 in neurons; dissociated hippocampal neurons
κLight1.3a [6] = experiment: in situ titration in dissociated hippocampal neurons expressing κLight1.3a; format: cell-based, human
κLight = molecular target: T2, κLight (Homo sapiens, UniProt P41145, INS261[…]/L259S/S262L/V164K); experiment: [3H]diprenorphine displacement binding, κLight cell membranes; conditions: read-out: κLight IC50
T2 construct: TlcnC (telencephalin) tag (C); PRC tag (C); ER2 (ER export motif FCYENEV) tag (C); expressed in transfected cells; dissociated hippocampal neurons (AAV9-hSyn); mouse brain (AAV9-hSyn)

κLight1.3a [7] = experiment: two-photon imaging of κLight1.3a response to electrical stimulation in hippocampal CA3 slices; design: species or system mouse; conditions: antagonist 100 µM, n = 3 slices
κLight1.3 [8] = molecular target: T1, κLight1.3; format: cell-based
Target sequence in this assay (P41145 with tags, fused parts or gaps V164K/L259S/INS261[withheld]/S262L): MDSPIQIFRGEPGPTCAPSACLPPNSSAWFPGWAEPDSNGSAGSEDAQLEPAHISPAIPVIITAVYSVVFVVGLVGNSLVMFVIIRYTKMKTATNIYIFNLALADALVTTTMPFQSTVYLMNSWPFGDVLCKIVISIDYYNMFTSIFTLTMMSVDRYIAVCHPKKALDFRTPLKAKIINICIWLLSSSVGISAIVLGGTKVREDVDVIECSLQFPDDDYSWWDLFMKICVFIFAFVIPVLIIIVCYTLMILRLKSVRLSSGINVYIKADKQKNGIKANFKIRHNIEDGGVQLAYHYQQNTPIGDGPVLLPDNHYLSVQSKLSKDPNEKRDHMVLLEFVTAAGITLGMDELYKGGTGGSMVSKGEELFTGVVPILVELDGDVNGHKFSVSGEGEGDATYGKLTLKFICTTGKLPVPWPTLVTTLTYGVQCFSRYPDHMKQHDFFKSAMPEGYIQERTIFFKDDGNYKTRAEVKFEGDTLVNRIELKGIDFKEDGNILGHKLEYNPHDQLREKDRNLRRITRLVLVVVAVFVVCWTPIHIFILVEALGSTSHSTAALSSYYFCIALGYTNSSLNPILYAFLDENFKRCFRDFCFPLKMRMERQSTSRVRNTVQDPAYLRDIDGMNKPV

δLight0 = molecular target: T3, δLight0 (Homo sapiens, UniProt P41143, D128N/G248L/INS249[…]/V154K); experiment: in vivo fiber photometry of control sensor δLight0 upon i.p. drug injection; design: species or system mouse; conditions: 5 mg/kg SNC162, n = 4 animals
T3 construct: ER2 tag (ER export motif FCYENEV) (C); PRC (proximal restriction and clustering) tag, after a GS linker (C); expressed in transfected cells; host or cells: mouse brain neurons (ARC; NAc) transduced in vivo with AAV-hSyn-δLight0
T3 sequence (P41143 with tags, fused parts or gaps, stated change not applied): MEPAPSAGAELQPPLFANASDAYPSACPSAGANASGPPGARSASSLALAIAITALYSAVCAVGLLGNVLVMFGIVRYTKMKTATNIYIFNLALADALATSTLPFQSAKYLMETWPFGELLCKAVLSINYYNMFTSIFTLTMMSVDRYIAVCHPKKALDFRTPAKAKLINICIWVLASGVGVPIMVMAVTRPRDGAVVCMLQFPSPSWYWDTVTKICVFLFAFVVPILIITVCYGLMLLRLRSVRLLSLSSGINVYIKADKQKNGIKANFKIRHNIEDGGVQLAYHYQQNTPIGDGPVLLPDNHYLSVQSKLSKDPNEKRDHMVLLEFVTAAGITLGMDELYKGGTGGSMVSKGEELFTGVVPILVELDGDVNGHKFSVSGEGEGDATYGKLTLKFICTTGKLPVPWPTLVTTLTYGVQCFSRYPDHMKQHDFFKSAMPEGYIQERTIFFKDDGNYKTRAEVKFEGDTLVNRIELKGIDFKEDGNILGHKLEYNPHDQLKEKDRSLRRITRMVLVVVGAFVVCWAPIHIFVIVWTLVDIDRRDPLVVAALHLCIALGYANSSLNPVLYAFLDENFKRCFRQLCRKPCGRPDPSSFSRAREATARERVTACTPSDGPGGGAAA
From the text: (§1) We next determined if κLight and δLight can be activated by systemic administration of exogenous small-molecule drugs in vivo. We injected AAV9-hSyn encoding κLight1.3 or δLight, and κLight0 or δLight0 in the arcuate nucleus (ARC) of the hypothalamus, hippocampal CA3 region[43] and NAc[30], areas abundant in κOR and δOR. We next implanted fiber-optic ferrules above each injection site and recorded the fluorescence of κLight and δLight upon intraperitoneal (i.p.) injection of opioid receptor-selective ligands using fiber photometry (Fig. 4a and Extended Data Fig. 4h–j).
(§2) For fiber photometry studies, recordings were obtained throughout the entirety of drug injection, Pavlovian conditioning and head-fixed sessions as previously described. […] Laser intensity for the 470-nm- and 405-nm-wavelength bands were measured at the tip of the optic fiber and adjusted to 50 μW before each day of recording. κLight1.3 fluorescence traveled through the same optic fiber before being bandpass filtered (525 ± 25 nm, Doric, FMC4), transduced by a femtowatt silicon photoreceiver (Newport, 2151) and recorded by a real-time processor (TDT, RZ5P). […]
Custom MATLAB scripts were developed for analyzing fiber photometry data in the context of mouse behavior. […] After baseline correction, the photometry trace was z-scored relative to the mean and standard deviation of the session. […]

δLight [9] = molecular target: T4, δLight (Homo sapiens, UniProt P41143, G248L/INS249[…]/V154K); format: in vivo, mouse
T4 construct: PRC tag (C); ER2 (ER export motif) tag (C); expressed in transfected cells; dissociated hippocampal neurons (AAV9-hSyn); mouse brain (AAV9-hSyn)
T4 sequence (P41143 with tags, fused parts or gaps, stated change not applied): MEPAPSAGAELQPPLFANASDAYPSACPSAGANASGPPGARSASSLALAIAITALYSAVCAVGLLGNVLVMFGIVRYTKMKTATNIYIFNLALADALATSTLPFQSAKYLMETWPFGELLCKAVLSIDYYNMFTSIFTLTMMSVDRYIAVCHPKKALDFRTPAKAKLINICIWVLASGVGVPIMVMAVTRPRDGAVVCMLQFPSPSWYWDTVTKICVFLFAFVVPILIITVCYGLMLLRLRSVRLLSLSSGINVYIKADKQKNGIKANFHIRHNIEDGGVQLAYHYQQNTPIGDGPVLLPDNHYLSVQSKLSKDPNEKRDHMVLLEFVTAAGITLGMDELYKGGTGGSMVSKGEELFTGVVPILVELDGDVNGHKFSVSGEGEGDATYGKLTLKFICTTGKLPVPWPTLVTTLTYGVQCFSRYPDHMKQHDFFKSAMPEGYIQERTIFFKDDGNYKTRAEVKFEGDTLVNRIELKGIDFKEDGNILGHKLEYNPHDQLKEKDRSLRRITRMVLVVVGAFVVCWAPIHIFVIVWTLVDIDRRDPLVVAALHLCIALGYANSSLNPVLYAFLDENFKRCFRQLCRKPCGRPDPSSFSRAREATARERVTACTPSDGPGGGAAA
From the text: as §1
as §2, with “described. Before recording, an optic fiber was attached to the implanted fiber using a ferrule sleeve (Doric, ZR_2.5). Two LEDs were used to excite κLight1.3.” for “described.”
Custom MATLAB scripts were developed for analyzing fiber photometry data in the context of mouse behavior. […] After baseline correction, the photometry trace was z-scored relative to the mean and standard deviation of the session. The post-processed fiber photometry signal was analyzed in the context of animal behavior during Pavlovian conditioning and operant task performance. […] Peak, mean and minimum fluorescence was determined during predetermined time windows for the injection period (0–5 min), reward period (5–20 s), release period (0–20 s) or artifact period (0–20 s) subtracted from peak, mean or minimum fluorescence values in a baseline window (−5 to 0 s). […]

δLight [10] = conditions: neuron cultures; 100 μM ME then 1 mM naloxone

µLight (Homo sapiens, UniProt P35372, INS270[…]/V175Q), sequence (P35372 with tags, fused parts or gaps V175Q/INS270[withheld]): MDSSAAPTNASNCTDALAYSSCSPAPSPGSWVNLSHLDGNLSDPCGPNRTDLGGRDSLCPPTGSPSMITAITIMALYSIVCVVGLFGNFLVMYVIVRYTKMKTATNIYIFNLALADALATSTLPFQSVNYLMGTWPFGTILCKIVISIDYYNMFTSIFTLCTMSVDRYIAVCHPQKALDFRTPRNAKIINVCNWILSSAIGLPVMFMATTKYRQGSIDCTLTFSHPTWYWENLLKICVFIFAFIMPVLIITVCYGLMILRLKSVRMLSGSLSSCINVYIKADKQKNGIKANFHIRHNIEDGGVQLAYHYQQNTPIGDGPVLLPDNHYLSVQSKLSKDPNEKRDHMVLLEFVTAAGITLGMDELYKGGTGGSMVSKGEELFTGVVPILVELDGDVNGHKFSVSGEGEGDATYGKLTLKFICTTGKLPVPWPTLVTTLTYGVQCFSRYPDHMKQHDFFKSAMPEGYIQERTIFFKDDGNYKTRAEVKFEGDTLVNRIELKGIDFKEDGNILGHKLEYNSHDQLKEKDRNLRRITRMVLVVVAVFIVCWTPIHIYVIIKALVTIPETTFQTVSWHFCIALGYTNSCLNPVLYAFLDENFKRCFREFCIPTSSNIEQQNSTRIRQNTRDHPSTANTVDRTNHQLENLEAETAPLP

For `C[C@@H](NC(=O)[C@@H](N)Cc1ccc(O)cc1)C(=O)NCC(=O)N(C)[C@@H](Cc1ccccc1)C(=O)NCCO` [DAMGO], the “μLight ΔF/F max (%)” value (µLight [1]) was 50.5±1.95%, the “Normalized ΔF/F of κLight1.3” value (κLight1.3 [2]) was 0.17 ± 0.03 and the “μLight % bound at 10 μM” value (µLight [3]) was 79±3%.

For `CC1(C)SSC(C)(C)[C@@H](NC(=O)[C@@H](N)Cc2ccc(O)cc2)C(=O)NCC(=O)N[C@@H](Cc2ccccc2)C(=O)N[C@H]1C(=O)O` [DPDPE], the “Normalized ΔF/F of κLight1.3” value (κLight1.3 [2]) was 0.19 ± 0.04 and the “κLight ΔF/F max (%)” value (κLight1.3 [2]) was 20.5±1.67%.

In the case of `CC(C)[C@H](NC(=O)[C@H](CC(=O)O)NC(=O)[C@H](Cc1ccccc1)NC(=O)[C@@H](C)NC(=O)[C@@H](N)Cc1ccc(O)cc1)C(=O)N[C@H](C(=O)NCC(N)=O)C(C)C` [Deltorphin I], the “Normalized ΔF/F of κLight1.3” value (κLight1.3 [2]) is reported as 0.26 ± 0.02.

`CC[C@H](C)[C@H](NC(=O)[C@H](CCCNC(=N)N)NC(=O)[C@H](CCCNC(=N)N)NC(=O)[C@H](CC(C)C)NC(=O)[C@H](Cc1ccccc1)NC(=O)CNC(=O)CNC(=O)[C@@H](N)Cc1ccc(O)cc1)C(=O)O` [DynA8, dynorphin A1-8] was tested, and the “Normalized ΔF/F of κLight1.3” value (κLight1.3 [2]) was 0.61 ± 0.04, the IC50 (µLight [3]) was 48 ± 2 nM and the “μLight % bound at 10 μM” value (µLight [3]) was 58±2%.

`CC[C@H](C)[C@H](NC(=O)[C@H](CCCNC(=N)N)NC(=O)[C@H](CCCNC(=N)N)NC(=O)[C@H](CC(C)C)NC(=O)[C@H](Cc1ccccc1)NC(=O)CNC(=O)CNC(=O)[C@@H](N)Cc1ccc(O)cc1)C(=O)N[C@@H](CCCNC(=N)N)C(=O)N1CCC[C@H]1C(=O)N[C@@H](CCCCN)C(=O)N[C@@H](CC(C)C)C(=O)N[C@@H](CCCCN)C(=O)O` [DynA13, dynorphin A1-13] gave an EC50 (δLight [4]) of 562 nM, an EC50 (κLight1.3 [5]) of 19.2 nM and an EC50 (κLight1.3a [6]) of 35.4 nM. For the same molecule, the EC50 (κLight1.3 [2]) was 0.0898 nM.

In the case of `CC(C)C[C@H](NC(=O)[C@H](Cc1ccccc1)NC(=O)CNC(=O)CNC(=O)[C@@H](N)Cc1ccc(O)cc1)C(=O)O` [LE, Leu-enkephalin], the “Normalized ΔF/F of κLight1.3” value (κLight1.3 [2]) is reported as 0.24 ± 0.02.

In the case of `CSCC[C@H](NC(=O)[C@H](Cc1ccccc1)NC(=O)CNC(=O)CNC(=O)[C@@H](N)Cc1ccc(O)cc1)C(=O)O` [ME, met-enkephalin], the EC50 (κLight1.3 [5]) is reported as 52100 nM, the EC50 (κLight1.3a [6]) is reported as 9650 nM and the “Normalized ΔF/F of κLight1.3” value (κLight1.3 [2]) is reported as 0.18 ± 0.005. It also gave an EC50 (κLight1.3 [2]) of 6640 nM and an IC50 (κLight) of 130 ± 3 nM.

With `CN(C(=O)/C=C/c1ccoc1)[C@@H]1CC[C@@]2(O)[C@H]3Cc4ccc(O)c5c4[C@@]2(CCN3CC2CC2)[C@H]1O5` [Nalfurafine, nalfurafine] the “Normalized ΔF/F of κLight1.3” value (κLight1.3 [2]) was 1.91 ± 0.09.

With `Oc1ccc2c3c1O[C@H]1c4[nH]c5c(c4C[C@@]4(O)[C@@H](C2)N(CC2CC2)CC[C@]314)C[C@@]1(O)[C@H]2Cc3ccc(O)c4c3[C@@]1(CCN2CC1CC1)[C@H]5O4` [Nor-BNI, nor-binaltorphimine] the “peak ΔF/F of κLight1.3a to 15 electrical stimuli in presence of antagonist” value (κLight1.3a [7]) was 1.57% ± 1.2 and the “pA2 at κLight1.3” value (κLight1.3 [8]) was 8.28.

In the case of `COc1ccc2c3c1O[C@H]1C(=O)CC[C@@]4(O)[C@@H](C2)N(C)CC[C@]314` [Oxycodone, oxycodone], the “µLight fluorescence response” value (µLight [1]) is reported as “suppressed”, the “μLight ΔF/F max (%)” value (µLight [1]) is reported as -12.8±2.78% and the “Normalized ΔF/F of κLight1.3” value (κLight1.3 [2]) is reported as 0.16 ± 0.04. The “μLight % bound at 10 μM” value (µLight [3]) was 32±3%.

In the case of `C=CCN1C[C@H](C)N([C@@H](c2ccccc2)c2ccc(C(=O)N(CC)CC)cc2)C[C@H]1C` [SNC162], the “μLight ΔF/F max (%)” value (µLight [1]) is reported as 2.9±1.69%, the EC50 (µLight [1]) is reported as 87.3 nM and the “peak z-score of δLight0” value (δLight0; ARC (panel j)) is reported as 0.77 ± 0.5%. The “peak z-score of δLight0” value (δLight0; ARC as printed (panel l)) was −0.61 ± 0.4%, the “Normalized ΔF/F of κLight1.3” value (κLight1.3 [2]) was 0.009 ± 0.02 and the “κLight ΔF/F max (%)” value (κLight1.3 [2]) was 12.2±2.39%. The EC50 (κLight1.3 [2]) was 8280 nM, the “z-score peak of δLight” value (δLight [9]; ARC, SNC162 2.25 mg per kg) was 2.4 ± 1.0 and the “z-score peak of δLight” value (δLight [9]; ARC, SNC162 5 mg per kg) was 7.28 ± 2.4. For the same molecule, the “z-score peak of δLight” value (δLight [9]; NAc, SNC162 5 mg per kg) was 7.45 ± 2.20.

In the case of `C=CCN1CC[C@]23c4c5ccc(O)c4O[C@H]2C(=O)CC[C@@]3(O)[C@H]1C5` [naloxone], the “δLight ΔF/F, + antagonist response” value (δLight [10]) is reported as 1.82 ± 2.4%.

In the case of `CC[C@H](C)[C@H](NC(=O)[C@H](C)NC(=O)[C@H](CC(N)=O)NC(=O)[C@H](CCCCN)NC(=O)[C@H](Cc1ccccc1)NC(=O)[C@H](CC(C)C)NC(=O)[C@@H](NC(=O)[C@@H](NC(=O)[C@H](CC(C)C)NC(=O)[C@@H]1CCCN1C(=O)[C@@H](NC(=O)[C@H](CCC(N)=O)NC(=O)[C@H](CO)NC(=O)[C@H](CCCCN)NC(=O)[C@H](CCC(=O)O)NC(=O)[C@H](CO)NC(=O)[C@@H](NC(=O)[C@H](CCSC)NC(=O)[C@H](Cc1ccccc1)NC(=O)CNC(=O)CNC(=O)[C@@H](N)Cc1ccc(O)cc1)[C@@H](C)O)[C@@H](C)O)C(C)C)[C@@H](C)O)C(=O)N[C@H](C(=O)N[C@@H](CCCCN)C(=O)N[C@@H](CC(N)=O)C(=O)N[C@@H](C)C(=O)N[C@@H](Cc1ccc(O)cc1)C(=O)N[C@@H](CCCCN)C(=O)N[C@@H](CCCCN)C(=O)NCC(=O)N[C@@H](CCC(=O)O)C(=O)O)[C@@H](C)CC` [β-endorphin], the EC50 (δLight [4]) is reported as 217 nM, the EC50 (κLight1.3a [6]) is reported as 2710 nM and the “Normalized ΔF/F of κLight1.3” value (κLight1.3 [2]) is reported as 0.21 ± 0.01. The “μLight % bound at 10 μM” value (µLight [3]) was 46±3%.

In the case of ICI 174864, the “peak ΔF/F of κLight1.3a to 15 electrical stimuli in presence of antagonist” value (κLight1.3a [7]) is reported as 6.44% ± 0.3 and the “antagonism of κLight activation by DynA13” value (κLight1.3 [8]) is reported as “did not observe apparent antagonism”.

With YGGFLRKYP [β-neoendorphin] the EC50 (µLight [1]) was 6310 nM, the “Normalized ΔF/F of κLight1.3” value (κLight1.3 [2]) was 0.26 ± 0.03 and the EC50 (κLight1.3 [2]) was 25.9 nM. For the same molecule, the IC50 (κLight) was 13 ± 2 nM.

YGGFLRRQF [DynB9, Dynorphin B9] was tested, and the EC50 (µLight [1]) was 3760 nM, the “Normalized ΔF/F of κLight1.3” value (κLight1.3 [2]) was 0.97 ± 0.03 and the EC50 (κLight1.3 [2]) was 10 nM.

With YGGFMRRVGRPEWWMDYQ [BAM18] the EC50 (µLight [1]) was 186 nM, the “Normalized ΔF/F of κLight1.3” value (κLight1.3 [2]) was 0.48 ± 0.03 and the EC50 (κLight1.3 [2]) was 35.6 nM. It also gave an IC50 (µLight [3]; read-out: μLight IC50) of 14 ± 2 nM and an IC50 (κLight) of 243 ± 2 nM.

YGGFMRRVGRPEWWMDYQKRYGGFL [Peptide E] was tested, and the “μLight % bound at 10 μM” value (µLight [3]) was 65±2%, the IC50 (µLight [3]; read-out: μLight IC50) was 154 ± 2 nM and the IC50 (κLight) was 252 ± 2 nM.
